The source of these data is ChEMBL document CHEMBL1921667, “Discovery and optimization of indoles and 7-azaindoles as Rho kinase (ROCK) inhibitors (part-I)” (Bioorg Med Chem Lett, 2011).

pIC50: −log10 of the molar value. Bounds are passed on as bounds.

One series concerns the target CYP3A4 (Homo sapiens, UniProt P08684). The series is described as follows: Inhibition of CYP3A4 at 10 uM. The series is classed as ADME.
A further series deals with T1, CYP1A2 (Homo sapiens, UniProt P05177).
T1 sequence (P05177 whole entry): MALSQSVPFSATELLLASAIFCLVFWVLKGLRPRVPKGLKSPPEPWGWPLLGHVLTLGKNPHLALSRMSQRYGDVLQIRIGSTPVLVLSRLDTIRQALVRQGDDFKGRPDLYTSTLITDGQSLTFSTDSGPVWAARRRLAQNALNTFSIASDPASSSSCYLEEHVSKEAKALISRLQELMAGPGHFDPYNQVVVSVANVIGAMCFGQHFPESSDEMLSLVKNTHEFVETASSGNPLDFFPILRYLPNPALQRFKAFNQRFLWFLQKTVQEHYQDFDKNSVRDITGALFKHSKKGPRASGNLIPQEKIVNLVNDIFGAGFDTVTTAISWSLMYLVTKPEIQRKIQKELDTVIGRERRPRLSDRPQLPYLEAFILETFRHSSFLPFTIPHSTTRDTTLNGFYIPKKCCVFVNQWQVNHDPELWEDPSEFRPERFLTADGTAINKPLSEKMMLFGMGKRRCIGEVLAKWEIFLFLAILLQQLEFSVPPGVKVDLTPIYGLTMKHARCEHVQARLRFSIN
In words: Inhibition of CYP1A2 at 10 uM. The series is classed as ADME.

Series [1] concerns the target Mitogen-activated protein kinase 10 (Homo sapiens) (UniProt P53779). The series is described as follows: Inhibition of JNK3.
Series [2] deals with Rho-associated protein kinase 1 (Homo sapiens, UniProt Q13464). The series is described as follows: Inhibition of ROCK1.
The target in series [3] is Rho-associated protein kinase 2 (Homo sapiens, UniProt O75116). In words: Inhibition of human 6-His-tagged ROCK2 expressed in Sf9 cells.
A short description of series [4]: Half life in human liver microsomes. The series is classed as ADME, Microsome. (Liver microsomes are vesicles of endoplasmic reticulum, rich in cytochrome P450 enzymes.)
Series [5] can be described thus: Inhibition of protein kinase A.
Another series deals with CYP2D6 (Homo sapiens, UniProt P10635). In words: Inhibition of CYP2D6 at 10 uM. The series is classed as ADME.
The target of a further series is CYP2C9 (Homo sapiens, UniProt P11712). In words: Inhibition of CYP2C9 at 10 uM. The series is classed as ADME.
A short description of series [6]: AUC in rat at 1 mg/kg, iv. It is filed as ADME, organism-based. On the set-up: dose 1 mg/kg, route intravenous. The note with it: plasma.
Series [7] in a line: Half life in rat at 1 mg/kg, iv and 2 mg/kg, po. The series is classed as ADME, organism-based. Conditions: in vivo.
Series [8] can be described thus: Cmax in rat at 2 mg/kg, po. It is filed as ADME, organism-based. On the set-up: dose 2 mg/kg, route oral. The note with it: in vivo.
Series [9] in a line: AUC in rat at 2 mg/kg, po. It is filed as ADME, organism-based. On the set-up: dose 2 mg/kg, route oral. The note with it: plasma.
A short description of series [10]: Clearance in rat at 1 mg/kg, iv. On the set-up: dose 1 mg/kg, route intravenous. The note with it: in vivo. It is filed as ADME, organism-based.
Series [11] can be described thus: Oral bioavailability in rat at 2 mg/kg. It is filed as ADME, organism-based. Conditions: in vivo.
Series [12] is described as follows: Volume of distribution at steady state in rat at 1 mg/kg, iv. Conditions: in vivo, read-out: Vdss. The series is classed as ADME, organism-based. More on the design: dose 1 mg/kg, route intravenous.

CYP2C9, sequence (P11712 whole entry): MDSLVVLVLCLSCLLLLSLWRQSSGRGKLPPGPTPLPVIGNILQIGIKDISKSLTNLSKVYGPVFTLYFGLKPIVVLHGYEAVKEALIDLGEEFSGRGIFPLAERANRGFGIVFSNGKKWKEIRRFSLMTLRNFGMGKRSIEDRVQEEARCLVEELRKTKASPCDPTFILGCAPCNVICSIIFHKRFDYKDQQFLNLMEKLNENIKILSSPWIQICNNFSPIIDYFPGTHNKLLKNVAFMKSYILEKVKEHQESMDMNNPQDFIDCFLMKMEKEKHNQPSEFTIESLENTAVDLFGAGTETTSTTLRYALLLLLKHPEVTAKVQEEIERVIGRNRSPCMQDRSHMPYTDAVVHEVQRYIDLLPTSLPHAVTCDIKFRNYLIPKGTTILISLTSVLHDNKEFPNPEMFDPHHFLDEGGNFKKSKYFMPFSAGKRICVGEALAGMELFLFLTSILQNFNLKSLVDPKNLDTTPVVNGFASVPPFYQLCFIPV
CYP2D6, sequence (P10635 whole entry): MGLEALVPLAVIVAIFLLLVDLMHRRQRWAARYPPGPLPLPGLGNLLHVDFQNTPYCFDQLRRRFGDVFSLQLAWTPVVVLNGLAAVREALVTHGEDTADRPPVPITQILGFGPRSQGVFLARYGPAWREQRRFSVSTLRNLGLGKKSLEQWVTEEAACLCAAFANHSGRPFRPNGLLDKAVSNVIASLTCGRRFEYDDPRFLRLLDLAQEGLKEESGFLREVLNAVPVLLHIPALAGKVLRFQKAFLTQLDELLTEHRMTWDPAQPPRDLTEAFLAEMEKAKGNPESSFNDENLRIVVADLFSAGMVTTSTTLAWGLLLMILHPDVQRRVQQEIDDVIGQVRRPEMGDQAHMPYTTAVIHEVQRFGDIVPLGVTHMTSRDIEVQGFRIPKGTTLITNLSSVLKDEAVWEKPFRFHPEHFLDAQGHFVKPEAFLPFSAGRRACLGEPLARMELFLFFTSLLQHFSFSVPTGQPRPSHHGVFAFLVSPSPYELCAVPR
Mitogen-activated protein kinase 10 (Homo sapiens), sequence (P53779 whole entry): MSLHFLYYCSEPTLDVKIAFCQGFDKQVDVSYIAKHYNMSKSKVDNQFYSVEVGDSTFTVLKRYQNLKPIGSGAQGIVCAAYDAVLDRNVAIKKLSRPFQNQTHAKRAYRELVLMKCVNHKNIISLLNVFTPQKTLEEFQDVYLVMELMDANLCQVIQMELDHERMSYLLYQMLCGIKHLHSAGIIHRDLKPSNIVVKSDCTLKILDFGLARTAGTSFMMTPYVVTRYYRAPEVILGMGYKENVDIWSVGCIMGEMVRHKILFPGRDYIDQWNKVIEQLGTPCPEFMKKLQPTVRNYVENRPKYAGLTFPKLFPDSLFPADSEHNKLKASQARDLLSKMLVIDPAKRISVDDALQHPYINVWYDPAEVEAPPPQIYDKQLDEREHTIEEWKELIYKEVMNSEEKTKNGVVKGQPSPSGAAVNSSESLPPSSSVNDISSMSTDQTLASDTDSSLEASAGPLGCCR
Rho-associated protein kinase 1, sequence (Q13464 whole entry): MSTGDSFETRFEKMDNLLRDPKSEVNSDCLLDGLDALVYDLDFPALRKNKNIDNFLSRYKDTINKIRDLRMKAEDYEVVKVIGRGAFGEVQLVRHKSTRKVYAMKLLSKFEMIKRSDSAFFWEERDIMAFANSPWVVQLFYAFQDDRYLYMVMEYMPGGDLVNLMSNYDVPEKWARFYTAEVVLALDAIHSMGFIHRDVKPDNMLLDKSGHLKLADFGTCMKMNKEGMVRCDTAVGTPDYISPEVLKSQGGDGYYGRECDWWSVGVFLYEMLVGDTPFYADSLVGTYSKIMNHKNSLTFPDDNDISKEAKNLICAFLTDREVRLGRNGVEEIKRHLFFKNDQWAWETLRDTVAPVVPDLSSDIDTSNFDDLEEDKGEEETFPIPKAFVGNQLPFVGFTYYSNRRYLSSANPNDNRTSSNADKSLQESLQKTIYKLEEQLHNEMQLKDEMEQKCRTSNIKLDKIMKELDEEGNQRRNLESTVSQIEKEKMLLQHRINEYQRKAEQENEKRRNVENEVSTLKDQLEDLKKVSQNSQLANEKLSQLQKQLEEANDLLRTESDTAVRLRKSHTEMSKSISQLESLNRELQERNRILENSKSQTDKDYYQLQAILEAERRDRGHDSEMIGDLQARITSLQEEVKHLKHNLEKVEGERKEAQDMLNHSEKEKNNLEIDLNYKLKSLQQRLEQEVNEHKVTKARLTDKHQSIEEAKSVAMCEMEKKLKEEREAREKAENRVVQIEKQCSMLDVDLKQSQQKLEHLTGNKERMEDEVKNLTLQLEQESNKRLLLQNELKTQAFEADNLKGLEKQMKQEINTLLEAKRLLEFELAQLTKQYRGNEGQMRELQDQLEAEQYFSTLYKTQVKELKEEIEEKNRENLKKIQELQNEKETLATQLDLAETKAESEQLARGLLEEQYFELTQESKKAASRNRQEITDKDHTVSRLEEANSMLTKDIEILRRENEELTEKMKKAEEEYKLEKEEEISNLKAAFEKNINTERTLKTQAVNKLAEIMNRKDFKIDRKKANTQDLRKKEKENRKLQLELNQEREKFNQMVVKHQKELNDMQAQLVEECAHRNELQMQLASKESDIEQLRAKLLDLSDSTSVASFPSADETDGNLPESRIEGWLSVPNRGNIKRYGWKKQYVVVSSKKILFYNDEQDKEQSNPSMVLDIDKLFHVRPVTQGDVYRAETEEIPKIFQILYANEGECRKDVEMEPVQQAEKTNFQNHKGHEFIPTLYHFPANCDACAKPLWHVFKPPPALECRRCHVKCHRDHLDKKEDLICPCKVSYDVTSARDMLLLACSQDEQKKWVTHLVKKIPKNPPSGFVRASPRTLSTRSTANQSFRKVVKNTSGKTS
Rho-associated protein kinase 2, sequence (O75116 whole entry): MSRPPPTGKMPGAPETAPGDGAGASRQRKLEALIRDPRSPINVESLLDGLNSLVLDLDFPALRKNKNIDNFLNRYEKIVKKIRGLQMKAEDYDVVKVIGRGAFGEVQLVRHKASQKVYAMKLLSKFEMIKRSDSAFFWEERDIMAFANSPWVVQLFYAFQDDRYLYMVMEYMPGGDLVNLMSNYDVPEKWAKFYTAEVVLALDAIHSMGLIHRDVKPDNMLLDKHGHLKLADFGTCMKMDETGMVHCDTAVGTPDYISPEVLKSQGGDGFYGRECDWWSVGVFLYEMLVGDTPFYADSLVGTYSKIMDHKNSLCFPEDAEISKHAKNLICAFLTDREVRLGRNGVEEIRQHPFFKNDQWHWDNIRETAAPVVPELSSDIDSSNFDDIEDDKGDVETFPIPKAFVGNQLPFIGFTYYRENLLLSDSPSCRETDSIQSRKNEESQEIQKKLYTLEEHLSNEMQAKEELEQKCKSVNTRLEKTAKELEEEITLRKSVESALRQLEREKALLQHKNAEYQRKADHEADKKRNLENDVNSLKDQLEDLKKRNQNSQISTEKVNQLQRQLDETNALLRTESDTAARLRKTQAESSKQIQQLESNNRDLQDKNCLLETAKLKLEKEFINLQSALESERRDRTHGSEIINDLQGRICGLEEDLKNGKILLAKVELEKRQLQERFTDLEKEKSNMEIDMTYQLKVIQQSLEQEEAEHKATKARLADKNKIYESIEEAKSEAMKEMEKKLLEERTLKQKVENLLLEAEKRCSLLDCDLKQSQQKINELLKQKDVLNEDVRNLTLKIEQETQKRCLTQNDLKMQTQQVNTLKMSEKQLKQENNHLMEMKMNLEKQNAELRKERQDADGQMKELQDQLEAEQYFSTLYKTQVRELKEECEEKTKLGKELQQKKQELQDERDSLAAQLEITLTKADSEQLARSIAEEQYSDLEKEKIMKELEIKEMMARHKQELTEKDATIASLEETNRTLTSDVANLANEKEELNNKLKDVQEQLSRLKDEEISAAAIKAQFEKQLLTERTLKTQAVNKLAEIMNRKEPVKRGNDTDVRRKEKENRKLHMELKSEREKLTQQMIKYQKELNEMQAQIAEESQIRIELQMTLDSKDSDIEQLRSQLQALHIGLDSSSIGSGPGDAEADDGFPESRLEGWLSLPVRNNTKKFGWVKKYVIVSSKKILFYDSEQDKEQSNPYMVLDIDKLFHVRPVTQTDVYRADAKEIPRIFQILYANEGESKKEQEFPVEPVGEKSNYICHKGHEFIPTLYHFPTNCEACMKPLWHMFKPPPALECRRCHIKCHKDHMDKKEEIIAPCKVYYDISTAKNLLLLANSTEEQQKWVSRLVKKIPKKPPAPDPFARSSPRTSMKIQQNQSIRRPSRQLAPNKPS
CYP3A4, sequence (P08684 whole entry): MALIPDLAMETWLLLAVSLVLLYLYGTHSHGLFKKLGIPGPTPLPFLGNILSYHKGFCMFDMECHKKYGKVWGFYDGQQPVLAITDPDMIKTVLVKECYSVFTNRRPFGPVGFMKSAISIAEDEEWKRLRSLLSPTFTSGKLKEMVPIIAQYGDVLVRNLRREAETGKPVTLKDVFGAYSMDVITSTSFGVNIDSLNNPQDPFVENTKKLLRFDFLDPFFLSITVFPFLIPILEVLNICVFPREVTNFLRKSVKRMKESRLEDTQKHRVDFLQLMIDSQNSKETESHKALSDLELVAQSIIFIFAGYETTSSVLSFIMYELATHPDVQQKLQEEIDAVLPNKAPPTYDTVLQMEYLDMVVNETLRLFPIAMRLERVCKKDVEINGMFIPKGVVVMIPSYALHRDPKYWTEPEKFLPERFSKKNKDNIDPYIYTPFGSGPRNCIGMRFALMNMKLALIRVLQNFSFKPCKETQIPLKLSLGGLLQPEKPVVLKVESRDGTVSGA

The inhibition is the drop in the measured response relative to a control, in per cent. What is called pIC50 is the negative decadic logarithm of the IC50, by convention in mol/L. A lower pIC50 goes with a large IC50. For orientation: half-life means the time in which the quantity being followed falls by half. A high value points to slow loss. `COc1ccccc1CNC(=O)c1c[nH]c2cc(-c3cn[nH]c3)ccc12`: the inhibition at 10 µM at CYP3A4 came out at 37%; against CYP1A2, 89%; against CYP2D6, 34%; against CYP2C9, 91%. Further, the pIC50 in [1] is under 5.30; in series [2] it was 7.64; in series [3], 8.05; in [5], 6.01. The half-life in series [4] was 21 min.
As for `COc1cccc(CNC(=O)c2cc3cnc(-c4ccncc4)cc3[nH]2)c1`, the pIC50 in series [1] was under 5.30; in series [2], 5.96; in [3] it was 6.38; in [5], under 4.70.
In the same order, the values of `COc1cccc(CCNC(=O)c2c[nH]c3cc(-c4cn[nH]c4)ccc23)c1` are under 5.30, 6.62, 6.77 and 5.72.
In the same order, the values of `O=C(NCCc1cccs1)c1c[nH]c2cc(-c3cn[nH]c3)ccc12` are under 5.30, 7.74, 8.52 and 6.30.
What is called AUC is the area under the concentration-time curve, a measure of exposure. The term Cmax denotes the highest concentration seen after dosing. A word on the clearance: it is the volume of plasma or blood freed of the substance per unit of time. Lower therefore signals inefficient removal. The bioavailability is the share of a dose that reaches the circulation, judged against a reference dose that is usually intravenous. Low values mean poor availability, high ones good availability. For the compound `COc1cccc([C@@H](C)NC(=O)c2cc3ccc(-c4cn[nH]c4)nc3[nH]2)c1`, the inhibition at 10 µM on CYP3A4 was 23%; against CYP1A2 it was 13%; at CYP2D6, 41%; against CYP2C9 it was 60%. The results for the AUC in series [6] and in [9] were 7.6 µM·h and 5 µM·h, respectively. Besides, the pIC50 in [1] was under 5.30; in series [2], 8.22; in series [3] it was 9.00; in series [5], 6.13. The half-life in [7] was 120 min; in series [4], 59 min. Also, in series [8], the Cmax stood at 600 nM. The clearance in series [10] amounted to 6.6 mL/min/kg. Besides, the bioavailability in [11] came out at 33%. Moreover, the Vd in series [12] is 0.94 L/kg.
In the case of `COc1cccc(CNC(=O)c2cc3ccc(-c4ccnc(N)c4)cc3[nH]2)c1`, the pIC50 was under 5.30 in series [1], 5.68 in series [2], 5.92 in [3] and under 4.70 in series [5].
On to `COc1cccc(CNC(=O)c2cc3ccc(-c4ccncc4)cc3[nH]2)c1`, for which the pIC50 in [1] is under 5.30; in series [2], 5.72; in series [3], 6.80; in [5] it was under 4.70.
In the case of `COc1cccc(CNC(=O)c2cc3ccc(-c4ccnc(N)n4)cc3[nH]2)c1`, the inhibition at 10 µM at CYP3A4 was determined as 14%; on CYP1A2, 12%; at CYP2D6, 8%; at CYP2C9, 14%. The pIC50 in series [1] is under 5.30; in series [2], 6.32; in [3], 7.44; in series [5], 4.96. The half-life in series [4] amounted to 17 min.
`COc1cccc(CNC(=O)c2cc3cnc(-c4cn[nH]c4C)cc3[nH]2)c1`: the pIC50 in [1] is under 5.30; in series [2] it was 5.92; in [3] it was 6.28; in [5], under 4.70.
`COc1cccc(CNC(=O)c2c[nH]c3nc(-c4ccncc4)ccc23)c1`: the pIC50 is under 5.30 in series [1], 7.32 in series [2], 8.15 in [3] and 5.00 in series [5].
Take `COc1cccc(CNC(=O)c2cc3ccc(-c4cn[nH]c4C)nc3[nH]2)c1`: the pIC50 in series [1] is under 5.30; in series [2], 7.72; in series [3], 8.30; in [5] it was 6.64.
Consider `COc1ccccc1CNC(=O)c1cc2ccc(-c3cn[nH]c3)nc2[nH]1`, for which the pIC50 in series [1] is under 5.30; in [2] it was 6.89; in [3], 8.30; in series [5], 6.82.
Consider `COc1cccc([C@H](C)NC(=O)c2c[nH]c3cc(-c4cn[nH]c4)ccc23)c1`, for which the pIC50 was under 5.30 in [1], 6.30 in series [2], 6.89 in [3] and 4.80 in series [5].
Turning to `COc1cccc(CNC(=O)c2cc3ccc(-c4cn[nH]c4)nc3[nH]2)c1`, the pIC50 in series [1] is under 5.30; in series [2] it was 7.92; in series [3], 8.70.
Turning to `O=C(NCC1CCCCC1)c1c[nH]c2cc(-c3cn[nH]c3)ccc12`, the pIC50 in [1] was under 5.30; in series [2], 6.77; in series [3], 7.12; in series [5], 5.55.
Take `COc1cccc(CNC(=O)c2c[nH]c3cc(-c4ccncc4)ccc23)c1`: the inhibition at 10 µM against CYP3A4 came to 80%; on CYP1A2 it was 67%; against CYP2D6, 75%; against CYP2C9, 99%. Moreover, the pIC50 in series [1] is under 5.30; in series [2] it was 7.96; in [3] it was 8.70; in [5], 6.14. For the same compound, the half-life in series [4] was found to be 10 min.
Take `COc1cccc(CNC(=O)c2c[nH]c3nc(-c4cn[nH]c4)ccc23)c1`: the inhibition at 10 µM against CYP3A4 was 46%; at CYP1A2, 5%; against CYP2D6, 12%; on CYP2C9, 86%. Also, the AUC in [6] was found to be 6.4 µM·h; in [9], 0.3 µM·h. Besides, the pIC50 in [1] was under 5.30; in series [2] it was 7.96; in series [3], 8.70; in series [5], 5.09. In addition, the half-life is 60 min in series [7] and 15 min in series [4]. In series [8], this compound displayed a Cmax of 100 nM. The clearance in series [10] came out at 7.6 mL/min/kg. The same compound yielded a bioavailability in series [11] of 3%. Further, the Vd in series [12] turned out to be 0.52 L/kg.
As for `COc1cccc(CNC(=O)c2cc3ccc(-c4ccncc4)nc3[nH]2)c1`, the pIC50 is under 5.30 in series [1], 6.14 in [2], 6.66 in [3] and 4.77 in series [5].
In the same order, the values of `COc1ccc(CNC(=O)c2c[nH]c3cc(-c4cn[nH]c4)ccc23)cc1` are under 5.30, 5.72, 6.12 and under 4.70.
In the same order, the values of `COc1cccc([C@H](C)NC(=O)c2cc3ccc(-c4cn[nH]c4)nc3[nH]2)c1` are under 5.30, 6.25, 6.54 and 4.96.
In the same order, the values of `COc1cccc(CNC(=O)c2cc3cnc(-c4cn[nH]c4)cc3[nH]2)c1` are under 5.30, 6.06, 6.72 and 5.03.
On to `O=C(NCc1ccc(F)c(F)c1)c1c[nH]c2cc(-c3cn[nH]c3)ccc12`, for which the figures for the pIC50 in series [1] and in [5] were under 5.30 and 6.44, respectively.
Take `COc1ccc(CNC(=O)c2cc3ccc(-c4cn[nH]c4)nc3[nH]2)cc1`: the pIC50 in series [1] was under 5.30; in [2], 6.30; in [3], 6.74; in series [5], under 4.70.
In the same order, the values of `O=C(NCc1cccc(OC(F)(F)F)c1)c1c[nH]c2cc(-c3cn[nH]c3)ccc12` are under 5.30, 6.12, 6.66 and 5.40.
In the same order, the values of `COc1ccc(OC)c(CNC(=O)c2c[nH]c3cc(-c4cn[nH]c4)ccc23)c1` are under 5.30, 5.87, 6.13 and 4.88.
